Experimental data published in ChEMBL document CHEMBL1649202, “Temporal trends of antimicrobial resistance and clonality of invasive Streptococcus pneumoniae isolates in Finland, 2002 to 2006” (2009).
Converted amounts (≈) assume the structure as drawn.

How the values were obtained:
Type in all cases: functional
Streptococcus pneumoniae [1] = test: Antimicrobial activity against Streptococcus pneumoniae serotype 19F ST 671 by agar plate dilution method
Streptococcus pneumoniae [2] = test: Antimicrobial activity against Streptococcus pneumoniae serotype 14 ST 13 harboring ERY-resistant mef(E) gene by agar plate dilution method
Streptococcus pneumoniae [3] = test: Antimicrobial activity against Streptococcus pneumoniae serotype 14 ST 156 harboring ERY-resistant mef(E) gene by agar plate dilution method
Streptococcus pneumoniae [4] = test: Antimicrobial activity against Streptococcus pneumoniae serotype 14 ST 143 harboring ERY-resistant erm(B) gene by agar plate dilution method
Streptococcus pneumoniae [5] = test: Antimicrobial activity against Streptococcus pneumoniae serotype 9V ST 156 harboring ERY-resistant erm(B) or mef(E) gene by agar plate dilution method
Streptococcus pneumoniae [6] = test: Antimicrobial activity against Streptococcus pneumoniae serotype 6B ST 90 harboring ERY-resistant erm(B) gene by agar plate dilution method
Streptococcus pneumoniae [7] = test: Antimicrobial activity against Streptococcus pneumoniae serotype 4 ST 205 by agar plate dilution method
Streptococcus pneumoniae [8] = test: Antimicrobial activity against Streptococcus pneumoniae serotype 6B ST 138 by agar plate dilution method
Streptococcus pneumoniae [9] = test: Antimicrobial activity against Streptococcus pneumoniae serotype 23F ST 961 harboring ERY-resistant erm(B) gene by agar plate dilution method
Streptococcus pneumoniae [10] = test: Antimicrobial activity against Streptococcus pneumoniae serotype 19F ST 156 by agar plate dilution method
Streptococcus pneumoniae [11] = test: Antimicrobial activity against Streptococcus pneumoniae serotype 19F ST 271 harboring ERY-resistant erm(B) and mef(E) gene by agar plate dilution method
Streptococcus pneumoniae [12] = test: Antimicrobial activity against Streptococcus pneumoniae serotype 18C ST 496 harboring ERY-resistant erm(B) gene by agar plate dilution method
Streptococcus pneumoniae [13] = test: Antimicrobial activity against Streptococcus pneumoniae serotype 23F ST 81 harboring ERY-resistant mef(E) gene by agar plate dilution method
Streptococcus pneumoniae [14] = test: Antimicrobial activity against Streptococcus pneumoniae serotype 23F ST 3250 by agar plate dilution method
Streptococcus pneumoniae [15] = test: Antimicrobial activity against Streptococcus pneumoniae serotype 14 ST 2918 by agar plate dilution method
Streptococcus pneumoniae [16] = test: Antimicrobial activity against Streptococcus pneumoniae serotype 14 ST 3247 by agar plate dilution method
Streptococcus pneumoniae [17] = test: Antimicrobial activity against Streptococcus pneumoniae serotype 17 ST 3248 by agar plate dilution method
Streptococcus pneumoniae [18] = test: Antimicrobial activity against Streptococcus pneumoniae serotype 19F ST 236 by agar plate dilution method
Streptococcus pneumoniae [19] = test: Antimicrobial activity against Streptococcus pneumoniae serotype 10 ST 461 by agar plate dilution method
Streptococcus pneumoniae [20] = test: Antimicrobial activity against Streptococcus pneumoniae serotype 6B ST 3249 by agar plate dilution method
Streptococcus pneumoniae [21] = test: Antimicrobial activity against Streptococcus pneumoniae serotype 19F ST 3245 by agar plate dilution method
Streptococcus pneumoniae [22] = test: Antimicrobial activity against Streptococcus pneumoniae serotype 19F ST 2694 harboring ERY-resistant mef(E) gene by agar plate dilution method
Streptococcus pneumoniae [23] = test: Antimicrobial activity against Streptococcus pneumoniae serotype 6B ST 3246 harboring ERY-resistant erm(B) gene by agar plate dilution method
Streptococcus pneumoniae [24] = test: Antimicrobial activity against Streptococcus pneumoniae serotype 14 ST 2678 harboring ERY-resistant erm(B) gene by agar plate dilution method
Streptococcus pneumoniae [25] = test: Antimicrobial activity against Streptococcus pneumoniae serotype 19F ST 2917 harboring ERY-resistant erm(B) and mef(E) gene by agar plate dilution method
Streptococcus pneumoniae [26] = test: Antimicrobial activity against Streptococcus pneumoniae serotype 14 ST 2916 harboring ERY-resistant erm(B) gene by agar plate dilution method
Streptococcus pneumoniae [27] = test: Antimicrobial activity against Streptococcus pneumoniae serotype 14 ST 2306 harboring ERY-resistant erm(B) gene by agar plate dilution method

`CN(C)[C@@H]1C(O)=C(C(N)=O)C(=O)[C@@]2(O)C(O)=C3C(=O)c4c(O)cccc4[C@@](C)(O)[C@H]3C[C@@H]12` [TETRACYCLINE] showed an MIC (Streptococcus pneumoniae [1]) of 0.5 µg/mL (≈ 1.13 µM), an MIC (Streptococcus pneumoniae [2]) of 0.25 µg/mL (≈ 0.563 µM) and an MIC (Streptococcus pneumoniae [3]) of 0.25 µg/mL (≈ 0.563 µM). For the same compound, the MIC (Streptococcus pneumoniae [4]) was 0.25 µg/mL (≈ 0.563 µM), the MIC (Streptococcus pneumoniae [5]) was 0.25 µg/mL (≈ 0.563 µM) and the MIC (Streptococcus pneumoniae [6]) was 0.5 µg/mL (≈ 1.13 µM). For the same compound, the MIC (Streptococcus pneumoniae [7]) was 1 µg/mL (≈ 2.25 µM), the MIC (Streptococcus pneumoniae [8]) was 0.25 µg/mL (≈ 0.563 µM) and the MIC (Streptococcus pneumoniae [9]) was 0.25 µg/mL (≈ 0.563 µM). For the same compound, the MIC (Streptococcus pneumoniae [10]) was 0.25 µg/mL (≈ 0.563 µM), the MIC (Streptococcus pneumoniae [11]; read-out: MIC) was 16 µg/mL (≈ 36 µM) and the MIC (Streptococcus pneumoniae [12]; read-out: MIC) was 0.25 µg/mL (≈ 0.563 µM). It also gave an MIC (Streptococcus pneumoniae [13]) of 1 µg/mL (≈ 2.25 µM), an MIC (Streptococcus pneumoniae [14]) of 16 µg/mL (≈ 36 µM) and an MIC (Streptococcus pneumoniae [15]) of 0.5 µg/mL (≈ 1.13 µM).

Work on `CC[C@H]1OC(=O)[C@H](C)[C@@H](O[C@H]2C[C@@](C)(OC)[C@@H](O)[C@H](C)O2)[C@H](C)[C@@H](O[C@@H]2O[C@H](C)C[C@H](N(C)C)[C@H]2O)[C@](C)(O)C[C@@H](C)C(=O)[C@H](C)[C@@H](O)[C@]1(C)O` [ERYTHROMYCIN] yielded an MIC (Streptococcus pneumoniae [1]) of 32 µg/mL (≈ 43.6 µM), an MIC (Streptococcus pneumoniae [16]) greater than 128 µg/mL and an MIC (Streptococcus pneumoniae [17]) greater than 128 µg/mL. For the same compound, the MIC (Streptococcus pneumoniae [2]) was 16 µg/mL (≈ 21.8 µM), the MIC (Streptococcus pneumoniae [3]) was 0.125 µg/mL (≈ 0.17 µM) and the MIC (Streptococcus pneumoniae [5]) was greater than 0.063 µg/mL. It also gave an MIC (Streptococcus pneumoniae [7]) of 32 µg/mL (≈ 43.6 µM), an MIC (Streptococcus pneumoniae [8]) of 16 µg/mL (≈ 21.8 µM) and an MIC (Streptococcus pneumoniae [18]) of 8 µg/mL (≈ 10.9 µM). For the same compound, the MIC (Streptococcus pneumoniae [19]) was greater than 128 µg/mL, the MIC (Streptococcus pneumoniae [10]) was 0.125 µg/mL (≈ 0.17 µM) and the MIC (Streptococcus pneumoniae [20]) was greater than 128 µg/mL. It also gave an MIC (Streptococcus pneumoniae [11]) greater than 128 µg/mL, an MIC (Streptococcus pneumoniae [12]) greater than 128 µg/mL and an MIC (Streptococcus pneumoniae [13]) of 0.125 µg/mL (≈ 0.17 µM). It also gave an MIC (Streptococcus pneumoniae [21]) greater than 128 µg/mL, an MIC (Streptococcus pneumoniae [14]) greater than 128 µg/mL and an MIC (Streptococcus pneumoniae [15]) greater than 128 µg/mL. For the same compound, the MIC (Streptococcus pneumoniae [22]) was 8 µg/mL (≈ 10.9 µM).

With `CC1(C)S[C@@H]2[C@H](NC(=O)Cc3ccccc3)C(=O)N2[C@H]1C(=O)O` [PENICILLIN G] the MIC (Streptococcus pneumoniae [1]) was 2 µg/mL (≈ 5.98 µM), the MIC (Streptococcus pneumoniae [23]) was 2 µg/mL (≈ 5.98 µM) and the MIC (Streptococcus pneumoniae [16]) was 2 µg/mL (≈ 5.98 µM). For the same compound, the MIC (Streptococcus pneumoniae [17]) was 2 µg/mL (≈ 5.98 µM), the MIC (Streptococcus pneumoniae [2]) was 2 µg/mL (≈ 5.98 µM) and the MIC (Streptococcus pneumoniae [24]) was 2 µg/mL (≈ 5.98 µM). The MIC (Streptococcus pneumoniae [3]) was 2 µg/mL (≈ 5.98 µM), the MIC (Streptococcus pneumoniae [4]) was 2 µg/mL (≈ 5.98 µM) and the MIC (Streptococcus pneumoniae [5]) was 2 µg/mL (≈ 5.98 µM). For the same compound, the MIC (Streptococcus pneumoniae [6]) was 2 µg/mL (≈ 5.98 µM), the MIC (Streptococcus pneumoniae [7]) was 2 µg/mL (≈ 5.98 µM) and the MIC (Streptococcus pneumoniae [8]) was 4 µg/mL (≈ 12 µM). The MIC (Streptococcus pneumoniae [18]) was 2 µg/mL (≈ 5.98 µM), the MIC (Streptococcus pneumoniae [19]) was 2 µg/mL (≈ 5.98 µM) and the MIC (Streptococcus pneumoniae [25]) was 2 µg/mL (≈ 5.98 µM). It also gave an MIC (Streptococcus pneumoniae [9]) of 2 µg/mL (≈ 5.98 µM), an MIC (Streptococcus pneumoniae [10]) of 2 µg/mL (≈ 5.98 µM) and an MIC (Streptococcus pneumoniae [20]) of 2 µg/mL (≈ 5.98 µM). It also gave an MIC (Streptococcus pneumoniae [11]; read-out: MIC) of 2 µg/mL (≈ 5.98 µM), an MIC (Streptococcus pneumoniae [12]; read-out: MIC) of 2 µg/mL (≈ 5.98 µM) and an MIC (Streptococcus pneumoniae [26]) of 2 µg/mL (≈ 5.98 µM). It also gave an MIC (Streptococcus pneumoniae [27]) of 2 µg/mL (≈ 5.98 µM), an MIC (Streptococcus pneumoniae [13]) of 2 µg/mL (≈ 5.98 µM) and an MIC (Streptococcus pneumoniae [21]) of 4 µg/mL (≈ 12 µM). It also gave an MIC (Streptococcus pneumoniae [14]) of 2 µg/mL (≈ 5.98 µM), an MIC (Streptococcus pneumoniae [15]) of 2 µg/mL (≈ 5.98 µM) and an MIC (Streptococcus pneumoniae [22]) of 2 µg/mL (≈ 5.98 µM).
